Values of other authors as cited in patent publication US7368441B2, “Method of increasing intracellular concentrations of phosphate and increasing the force of muscular contractions” (Aplodan Formulations Ltd., priority 2006, dated 2008).
Where two headings read alike, the source gives them in different places.

Key:
[1] = in vivo
[2] = patients with inadequate coronary blood flow
[3] = administration in humans
[4] = oral administration, test animals, at 48 hours
[5] = alkaline and acidic solutions
[6] = in vitro
[7] = clinical trials
[8] = unaffected in placebo group
[9] = elderly subjects

Compound: CN(CCOP(=O)(O)O)C(=N)N [2-(carbamimidoyl-methyl-amino)ethoxyphosphonic acid]
- tolerability / side effects [1]: well tolerated and without side effects
- cardiac parameters [2]: improve cardiac parameters
- urine levels of creatinine [3]: increases urine levels of creatinine
- absorption by the intestine [4]: about 60%
- stability in solution [5]: stable in both alkaline and acidic solutions
- dephosphorylation to creatine ([6]; blood and muscle): less so
- dephosphorylation to creatine ([6]; kidney, intestine and liver): dephosphorylated to creatine to some degree
- muscle development and capacity to perform physical activity [7]: improve muscle development and increase the capacity to perform physical activity
- hand strength [8]: improved
- muscular performance [9]: improved muscular performance
- 14C radio-labeled compound found in skeletal muscle (Guinea-Pig, intravenous, intramuscular and oral administration): Significant amounts
- duration of more constant level in the body following administration (oral administration): about 15 hours
- time after which level in the body begins to decrease (oral administration): 33 h
